Consider 14 compounds from PubChem BioAssay (NCI).

Test in all cases: NCI tumour cell line growth inhibition, 48 h
In assay [1] the test system is 786-0 renal.
For assay [2], the system named is COLO 205 colon.
Assay [3] has as its system EKVX NSCLC.
Assay [4] has as its system HCT-116 colon.
Assay [5] deals with HOP-62 NSCLC.
The subject of assay [6] is HT29 colon.
Assay [7] relates to K-562 leukemia.
In assay [8] the test system is M14 melanoma.
For assay [9], the system named is MALME-3M melanoma.
In assay [10] the test system is OVCAR-3 ovarian.
In assay [11] the test system is RXF 393 renal.
Assay [12] has as its system SF-268 CNS.
For assay [13], the system named is SF-539 CNS.
For assay [14], the system named is SK-MEL-28 melanoma.
Assay [15] relates to SW-620 colon.
Assay [16] deals with U251 CNS.
Assay [17] deals with MDA-N.

Several values for one entry are separate records, joined by “and”; a condition that tells them apart may be missing. Equal values may be shown once.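 How tested: cells in 96-well plates exposed to compound for 48 hours at five concentrations. GI50: concentration for 50% inhibition of growth. Definition used: TGI = concentration required for complete inhibition of growth.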

Turning to `COC(=O)C1=C(C(=O)OC)C2C(C)=CC(C)=CN2C(C#N)=C(SC)S1` (centres undefined), the TGI is 73.2 µM in [1]; 34.4 µM in assay [2]; 64.9 µM in assay [3]; 29.6 µM in [4]; over 100 µM in assay [5]; 44.6 µM in assay [6]. The TGI in assay [7] was 55.3 µM; in assay [8], 35.2 µM; in assay [9] it was 48.3 µM; in assay [10], 72.7 µM; in assay [11] it was 30.6 µM; in assay [12] it was 56.8 µM. Besides, the TGI is 61.4 µM in assay [13], 41.8 µM in assay [14], 42.7 µM in assay [15] and over 100 µM in assay [16].
As to `C=C[C@H]1CC[C@H]2[C@@H]3CC=C4C[C@@H](OC5OCC(O)C(O)C5O)CC[C@]4(C)[C@H]3CC[C@]12C` (some centres undefined), the TGI in assay [1] was 34.1 µM; in [2], over 100 µM; in assay [4], 28.4 µM; in assay [5], over 100 µM; in assay [6] it was 61.3 µM; in assay [7] it was over 100 µM. Besides, the TGI in assay [8] is 40.9 µM; in assay [17], 65.8 µM; in assay [10] it was 25.5 µM; in [12], 36.2 µM; in assay [13], 28.6 µM; in assay [15], 40.2 µM. The compound also displayed a TGI in [16] of 30.5 µM.
For the compound `CC1(C)C2CCC(N)(C2)C1N` (centres undefined), the TGI in assay [1], in assay [2], in [3], in assay [4], in [5] and in [7] was over 100 µM each time. Moreover, the TGI in assay [8], in assay [17], in [10], in [11], in assay [14] and in [15] was over 100 µM in each case. Further, the TGI in assay [16] was over 100 µM.
For `CC(=O)O[C@@H]1[C@H]2[C@@H](OC(=O)c3ccccc3)[C@@H](C)C[C@]2(O)[C@H](OC(C)=O)[C@@]2(C)[C@@H]3CC(C)(C)C(=O)[C@]3(OC(C)=O)C[C@@]12C`, the TGI in assay [1], in assay [2], in assay [3], in assay [4], in [5] and in assay [8] was over 25 µM in each case. The TGI in assay [17], in assay [10], in assay [11], in assay [12], in [13] and in assay [15] was over 25 µM each time. In addition, the TGI in assay [16] was over 25 µM.
Take `C=CC(C)(C)C(=C)C(=O)N(C)c1ccccc1I`: the TGI in assay [1], in [2], in assay [3], in [4], in [5] and in assay [6] was over 100 µM each time. Besides, the TGI in assay [7], in [8], in assay [17], in [10], in assay [11] and in assay [12] was over 100 µM each time. The TGI in assay [14], in [15] and in assay [16] was over 100 µM in each case.
In the case of `COc1cc(C2c3cc4c(cc3[C@@H](NCCN3CCCCC3)C3COC(=O)[C@H]23)OCO4)cc(OC)c1O` (some centres undefined), the TGI was 1.01 µM and 0.808 µM in assay [1]; over 100 µM in assay [2]; 5.28 µM and 5.71 µM in assay [3]; 10.6 µM and 14.6 µM in assay [4]; 0.283 µM in [5]; 3.56 µM in assay [6]. The TGI in assay [7] was 20.8 µM and 18 µM; in [8] it was 1.44 µM and 2 µM; in [9] it was 2.59 µM and 3.44 µM; in assay [10], 3.52 µM and 3.72 µM; in assay [11], 1.98 µM and 4.14 µM; in [12] it was 6 µM and 15.8 µM. For the same compound, the TGI in [13] is 0.842 µM and 0.896 µM; in [14] it was 7.22 µM and 11.4 µM; in assay [15], 11.4 µM and 10.2 µM; in assay [16], 1.44 µM and 1.62 µM. Further, in assay [11], the GI50 is 0.243 µM and 1.27 µM.
As for `COc1cc(/C=C/C(=O)OC2C(O)C3CC(OC(=O)c4cc(OC)c(OC)c(OC)c4)CC2N3C)cc(OC)c1OC` (centres undefined), the TGI is over 50 µM in [1]; 42.5 µM in assay [2]; over 50 µM in [3]; over 50 µM in [4]; over 50 µM in assay [5]; over 50 µM in assay [6]. Further, the TGI in assay [7], in assay [8], in assay [17], in assay [10], in assay [11] and in assay [12] was over 50 µM each time. Further, the TGI in assay [13], in assay [15] and in [16] was over 50 µM in each case.
As for `O=C1NC(=S)NC(=O)C1C(c1ccc([N+](=O)[O-])cc1)C1C(=O)NC(=S)NC1=O`, the TGI in assay [1], in assay [2], in assay [3], in [4], in [5] and in assay [6] was over 100 µM each time. In addition, the TGI in [7], in [8], in [17], in [10], in assay [11] and in assay [14] was over 100 µM in each case. Besides, the TGI in [15] and in assay [16] was over 100 µM in each case.
In the case of `O=C1c2cc3c(cc2CC12Cc1cc4c(cc1C2=O)CCC4)CCC3`, the TGI in [1], in assay [2], in assay [3], in [4], in assay [5] and in assay [6] was over 100 µM in each case. The TGI in [7], in assay [8], in assay [9], in assay [10], in assay [11] and in [12] was over 100 µM in each case. Also, the TGI in assay [13], in assay [14], in assay [15] and in assay [16] was over 100 µM each time.
In the case of `O=c1[nH]c(=O)n(COCCO)c2ccc(Br)cc12`, the TGI in assay [1], in assay [2], in [3], in [4], in assay [6] and in assay [7] was over 100 µM throughout. In addition, the TGI in [8], in assay [17], in [10], in assay [11], in [13] and in assay [14] was over 100 µM throughout. The TGI in assay [15] and in [16] was over 100 µM throughout.
With `c1cc(CSP234N5CCN2CCN3CCN4CC5)ccc1CSP123N4CCN1CCN2CCN3CC4`, the TGI in [1], in assay [2], in assay [3], in assay [4], in [5] and in assay [6] was over 100 µM each time. Also, the TGI in assay [7], in [8], in assay [17], in [10], in assay [12] and in [13] was over 100 µM throughout. Further, the TGI in [14], in assay [15] and in assay [16] was over 100 µM each time.
For `OCC1OC(Oc2cc(O)cc(/C=C/c3ccc(O)cc3)c2)C(O)C(O)C1O` (centres undefined), the TGI in assay [1], in [3], in assay [4], in assay [5], in assay [6] and in assay [7] was over 100 µM each time. Further, the TGI in assay [17], in assay [10], in [11], in assay [13], in assay [14] and in [15] was over 100 µM each time. This compound also yielded a TGI in assay [16] of over 100 µM.
Regarding `COc1cc(Cl)cc(N(O)C(C)=O)c1OCc1ccccc1`, the TGI in assay [1], in assay [2], in assay [3], in assay [4], in assay [5] and in assay [6] was over 100 µM throughout. In addition, the TGI in assay [7], in assay [8], in [9], in [10], in [11] and in assay [12] was over 100 µM in each case. The TGI in assay [13], in assay [14], in [15] and in [16] was over 100 µM throughout.
With `CC(C)(C)[Si](C)(C)OCC1OC(n2ccc(=O)[nH]c2=O)C(O[Si](C)(C)C(C)(C)C)[C@@]12O[C@H]2C(N)=O` (some centres undefined), the TGI in assay [1] turned out to be 29.9 µM; in assay [2], 24.8 µM; in assay [3], 34.4 µM; in assay [4], 22.1 µM; in assay [5], 26.8 µM; in assay [6] it was 12.4 µM. In addition, the TGI in assay [8] was 42.9 µM; in assay [17] it was 24.1 µM; in [10], 25.9 µM; in assay [12] it was 28.2 µM; in assay [13], 13.4 µM; in assay [14], over 100 µM. The TGI was 42.5 µM in assay [15] and 23.2 µM in [16].
